# Source: patent US6759432B2, “Medical use of matrix metalloproteinase inhibitors for inhibiting tissue contraction” (University of Florida Research Foundation, priority 1994, dated 2004)
# How the values were obtained:
# [1] = test system: human keratinocytes and human dermal fibroblasts; test: Contraction of artificial skin equivalent; assay type: cell-based; conditions: 40 μg/ml; 7 days; vs hydroxamic acid 100 μM
# Procedure: The effect of an MMP inhibitor on the contraction of an artificial skin equivalent was tested. […] This lattice was then exposed to growth medium containing Galardin at 40 μg/ml or hydroxamic acid at 100μM (control).
# [2] = test system: Tenons capsule fibroblast; test: Actin cytoskeleton staining with FITC-phalloidin; assay type: cell-based, human; conditions: 40 μg/ml
# Procedure: Monolayer cultures of fibroblasts and collagen lattices (gels) seeded with 1×10^5 cells per lattice were prepared (as described in Example 1).
# In order to assess whether this difference was owing to the direct effect of the inhibitor or to differences in the degree of invasion into the matrix, cells were exposed in monolayer culture to the inhibitor and the cytoskeleton was-stained. See FIGS. 10A (control) and 10B (exposed to inhibitor). The arrows indicate the stress fibres on the cells in the monolayer culture.
# human dermal fibroblasts = test: Collagen lattice contraction, human dermal fibroblasts; assay type: cell-based; conditions: 40 μg/ml
# Procedure: (§1) Collagen lattices (gels) were prepared as previously described in Example 1 and were seeded with 1×10^5 cells per lattice of:
# (§2) The lattices were then exposed to growth medium containing Galardin at 40 μg/ml or hydroxamic acid at 100μM (control). The test solutions were made up as described in Example 3 above and approximately 3 ml dose of the appropriate test solutions were used.
# human ocular fibroblasts [3] = test: Cytotoxicity: cell count and trypan blue dye exclusion; assay type: cell-based; conditions: 40 and 4 μg/ml; 2×10^4 cells per well; vs control medium
# Procedure: This experiment was carried out substantially according to the method of Example 2, except that cells were seeded at 2×10^4 cells per well, cultured without radioactive material and were exposed to control medium (DMEM/10% NCS) or Galardin at 40 μg/ml and 4 μg/ml concentration. […] Wells were harvested and cells counted on a haemocytometer, see FIG. 3E for the results, and the percentage of viable cells in each well was measured using the trypan blue dye exclusion test, see FIG. 3F for the results.
# [4] = test system: rat parietal sheath fibroblasts; test: Collagen lattice contraction, rat parietal sheath fibroblasts; assay type: cell-based; conditions: 40 μg/ml
# Procedure: as §1, §2
# ocular fibroblasts = test: Fibroblast morphology within collagen lattices (phase contrast microscopy); assay type: cell-based, human
# Procedure: Collagen lattices seeded with ocular fibroblasts were prepared and exposed to MMP inhibitors, both synthetic chemicals and antibodies, as described in Example 3 above. Cellular morphology was monitored by phase contrast microscopy.
# [5] = test system: rat endotendon fibroblasts; test: Collagen lattice contraction, rat endotendon fibroblasts; assay type: cell-based; conditions: 40 μg/ml
# Procedure: as §1, §2
# stromelysin = stromelysin (Homo sapiens, UniProt P08254); test: biochemical
# [6] = test system: Human ocular fibroblasts (Tendon's capsule fibroblasts); test: Toxicity by tritiated thymidine incorporation (DNA synthesis); assay type: cell-based; conditions: 80.0, 8.0 and 0.8 μg/ml; 24 hours; medium plus 10% serum and vehicle
# Procedure: The toxicity of the inhibitors was tested by measuring DNA synthesis by tritiated thymidine incorporation. The assay was adapted from a procedure previously described, Woost, P. G. et al 1992.
# Human ocular fibroblasts (Tendon's capsule fibroblasts) were cultured in Trimix (DMEM/F-10/M-199) cell culture medium (available from GIBCO/BRL) supplemented with 10% bovine calf serum and grown to confluency in T-75 tissue culture flasks. (That is flasks having a surface area of 75 cm^2.) The cells were split and seeded into 24 well plates at a density of 1×10^4/well in 1.0 ml of medium with 10% bovine calf serum. The cells were incubated for 24-36 hours or until they reached 60-70% confluency. The medium was then changed to serum-free Trimix and the cells were incubated for an additional 24 hours. The cells were then incubated in quadruplicate wells for 24 hours with 1.0 μCi/well ^3H-thymidine in the following conditions: serum-free medium (Trimix), medium plus 10% serum, medium plus 10% serum and vehicle, alone or with the inhibitors. The vehicle was a buffered acetate solution. The solutions comprising medium with 10% serum and vehicle, alone or with inhibitors, were prepared by the method described in Example 1, section (c), above, using Trimix instead of the HEPES buffered DMEM. […] Radioactivity was determined by liquid scintillation counting […] of the solubilized cells. […]
# human ocular fibroblasts [7] = test: Contraction of fibroblast populated collagen gels (lattice area); assay type: cell-based; conditions: for contraction of gels (mean lattice area): 40 and 4 μg/ml, 7 days, vs hydroxamic acid control
# Procedure: They were then removed from their substratum via a trypsinisation and were pelleted by centrifugation at 3000× g for 8 minutes. The supernatant was then discarded and the cell pellet resuspended in 1.1 ml of newborn calf serum. 100 μl of the suspension was removed and counted in a Coulter counter (Model ZF).
# Triplicate gels were made by adding 1.05 ml of the concentrated medium to 1.8 ml of the type 1 collagen solution, mixing rapidly and then adding 0.45 ml of a cell suspension containing 300,000 cells and mixing rapidly.
# 1 ml aliquots of this gel were then added to petri dishes (area=8 cm^2) and then the dishes were rotated so that the gels were evenly distributed across the bottoms of the dishes. The gels were then incubated at 37° C. in 5% CO2 in air until they had solidified (usually 3 to 5 minutes). An area of the gel was then detached from the edge of each petri dish and 3 ml of normal growth medium solution (control 2), inhibitor test solution or buffer solution (control 1), were added. Each gel was then fully detached from the edges and bottom of the petri dish so that free-floating gels were obtained.
# The gels, after solidification, were treated for 24 hours with 3 ml of each of the following test solutions:
# The test and control solutions were replaced by 3 ml of the appropriate fresh solution after 24 hours. Photographs of the gel areas were taken on days 1 and 2 and were then digitised. The resulting data were processed by a computer and the gel areas were calculated. Phase-contrast photographs were taken of the top and middle of each gel after 1 and 2 days.
# Test solutions were used in approximately 3 ml doses. For all contraction experiments cell morphology was monitored by phase contrast microscopy and the growth medium was changed every 3 to 4 days.
# Collagen gels were seeded with either 100,000 or 500,000 cells. […] The gels were monitored for 7 days.
# They were exposed to inhibitor and control solutions in the following ways:
# The experiment was carried out as for (a) above with 1×10^5 cells per lattice and the test solutions used were BB-94 4 μg/ml, BB-94 0.4 μg/ml and control with vehicle (0.1% vol/vol DMSO). The development of the lattices was followed for seven days after seeding.
# The experiment was carried out as for (d) above except that the test solutions used were 1:50 (vol/vol) of antibodies in growth medium. The antibodies used were antibodies to MMPs 1, 2, 3 and 9, obtained from Biogenesis Ltd., (Poole, U.K.). A control solution of 0.1% sodium azide and 0.14% rabbit serum in PBS diluted to 1:50 in growth medium was also used.
# [8] = test system: MMP activity (proteolytically active species) of human Tenon's capsule fibroblasts; test: Gelatin zymography of seeded collagen lattices; assay type: cell-based; conditions: treatment of seeded lattices
# Procedure: Samples of conditioned medium and collagen lattices (1×10^5 cells/lattice) were collected on days 1, 3 and 7 post seeding. Lattices were washed in phosphate buffered saline (PBS; 3×3 ml) prior to homogenisation in 0.5% (vol/vol) Triton-X100 in PBS (Hunt et al. 1993]. Gelatin zymography [Heussen & Dowdle 1980] was then performed on these samples. Briefly, samples and prestained molecular weight standards were resolved on 10% tris glycine gels containing 0.1% gelatin (Novex, R&D Systems, Oxford, U.K.). Gels were then incubated for 30 minutes in renaturing buffer, 30 minutes in developing buffer followed by a further 18 hours in developing buffer at 37° C. (all Novex). Gels were than stained in 0.5% (wt/vol) commassie blue in 45% (vol/vol) water, 45% (vol/vol) methanol and 10% (vol/vol) glacial acetic acid, followed by destaining in 45% (vol/vol) water, 45% (vol/vol) water, 45% (vol/vol) methanol and 10% (vol/vol) glacial acetic acid. MMP activity appeared as clear bands on a blue background.
# gelatinase = test: Inhibition constant with gelatinase; assay type: biochemical
# [9] = 1×10^5 cells per lattice, 7 days, vs hydroxamic acid 100 μM
# Chain of stromelysin (P08254 100-477): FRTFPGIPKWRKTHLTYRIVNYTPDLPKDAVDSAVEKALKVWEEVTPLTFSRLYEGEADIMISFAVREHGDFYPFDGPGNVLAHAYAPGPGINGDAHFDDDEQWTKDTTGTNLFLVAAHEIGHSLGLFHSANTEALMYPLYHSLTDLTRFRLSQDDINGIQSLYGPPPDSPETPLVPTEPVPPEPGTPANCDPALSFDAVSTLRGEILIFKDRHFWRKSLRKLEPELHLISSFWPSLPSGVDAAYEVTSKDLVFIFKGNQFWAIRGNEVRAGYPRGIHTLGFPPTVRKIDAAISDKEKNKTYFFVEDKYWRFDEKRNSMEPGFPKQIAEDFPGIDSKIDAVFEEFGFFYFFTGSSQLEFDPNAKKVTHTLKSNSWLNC
compound,measurement,setting,value
"CNC(=O)[C@H](Cc1c[nH]c2ccccc12)NC(=O)[C@@H](CC(=O)NO)CC(C)C [GM6001, N-[2(R)-2-(hydroxamidocarbonylmethyl)-4-methylpentanoyl]-L-tryptophan methylamide]",contraction of artificial skin equivalent (mean lattice area),[1],less contraction than those exposed to the control solution
same,actin stress fibres on cells populating collagen gels,[2]; collagen lattice,do not appear to be present
same,actin cytoskeleton in monolayer culture,"[2]; monolayer culture, compared to controls",did not appear to affect the actin cytoskeleton
same,contraction of lattices (mean lattice area),human dermal fibroblasts; [9],greatly reduced
same,cellular invasion into and migration through the surrounding matrix,human dermal fibroblasts; compared to controls,decreased cellular invasion into and migration through
same,cell number per well (haemocytometer),human ocular fibroblasts [3],did not adversely affect
same,"cell viability (percentage of viable cells, trypan blue)",human ocular fibroblasts [3],did not adversely affect
same,contraction of lattices (mean lattice area),[4]; [9],greatly reduced
same,cellular invasion into and migration through the surrounding matrix,[4]; compared to controls,decreased cellular invasion into and migration through
same,cell morphology in lattices,"ocular fibroblasts; 4 μg/ml, 7 days post seeding",Small cytoplasmic projections
same,invasion into the surrounding collagen matrix,"ocular fibroblasts; synthetic inhibitors as in Example 3, compared to controls",decreased invasion into the surrounding collagen matrix
same,contraction of lattices (mean lattice area),[5]; [9],greatly reduced
same,cellular invasion into and migration through the surrounding matrix,[5]; compared to controls,decreased cellular invasion into and migration through
same,Ki,stromelysin,20 nM
same,toxicity (3H-thymidine incorporation),[6],no significant toxicity
same,contraction of lattices already contracted for 5 days,"human ocular fibroblasts [7]; 4 μg/ml from day 5 for 25 days, vs control solution",inhibited contraction
same,contraction after replacement of inhibitor by control solution (reversibility),"human ocular fibroblasts [7]; 4 μg/ml until day 14, then control solution",significant increase in contraction from day 14 onwards
same,contraction of lattices already contracted for 5 days,human ocular fibroblasts [7]; 40 μg/ml from day 5 for 25 days,stronger inhibitory effect than the 4 μg/ml solution
same,contraction of collagen gels (gel area),"human ocular fibroblasts [7]; 400, 40 and 4 μg/ml, 100,000 cells per gel, 2 days, vs buffer and normal growth medium",inhibited the contraction of the collagen gels
same,dose dependence of inhibition of gel contraction,"human ocular fibroblasts [7]; 400, 40 and 4 μg/ml, 2 days",dose dependent
same,viability of cells in the collagen gels at end of test (phase contrast microscopy),"human ocular fibroblasts [7]; 400, 40 and 4 μg/ml, 2 days",appeared to be viable
same,contraction of gels (mean lattice area),"human ocular fibroblasts [7]; 100,000 cells per lattice",much less than that of gels exposed to control solutions
same,contraction of gels (mean lattice area),"human ocular fibroblasts [7]; 500,000 cells per lattice",much less than that of gels exposed to the control solution
same,contraction of lattices (mean lattice area),"human ocular fibroblasts [7]; continual exposure to 4 μg/ml, 1×10^5 cells/lattice, up to 40 to 50 days",very little contraction
same,proteolytically active species in gelatin zymography,[8],abolishment of the four proteolytically active species
same,Ki,gelatinase,0.4 nM
CC(C)C[C@H](CC(=O)O)C(=O)N[C@@H](Cc1c[nH]c2ccccc12)C(=O)N[C@@H](C)c1ccccc1 [GM1489],toxicity (3H-thymidine incorporation),[6],no significant toxicity
